Experimental data reported in patent US4672063A, “Antiallergic 5-alkyl-1-phenyl-2-piperazinoalkylpyrazolin-3-one compounds” (Kali-Chemie Pharma GmbH, priority 1984, dated 1987).

Tests used:
[1] = tested on: serotonin induced anaphylactoidal reaction; assay: Inhibition of serotonin-induced anaphylactoid cutaneous reaction in the rat, test substance p.o.; format: in vivo, rat (Sprague-Dawley); conditions: po, 1 μg serotonin intradermally, read-out: ED50 inhibiting effect, serotonin induced anaphylactoidal reaction
Description: (§1) 2. Determining the inhibition of passive cutaneous anaphylaxis (PCA) and the inhibition of anaphylactoid cutaneous reactions induced by histamine and by serotonin.
(§2) The determination of the inhibition of passive cutaneous anaphylaxis and the anaphylactoid cutaneous reactions induced by histamine and by serotonin, are carried out, as set forth below, according to the method of Martin and Baggiolini (Naunyn-Schmeiedeberg's Archives of Pharmacology 316 (1981) 186-189).
(§3) For passive sensitizing against ovalbumin, male Sprague-Dawley rates (body weight 150 to 165 g) are injected intradermally on a shaved part of the back with 0.05 ml of a 1:2.5 dilution of antiovalbumin serum, rich in IgE, in physiological sodium chloride solution.
(§4) 24 hours after the sensitizing, solutions of the test substances are administered orally to the rats. For comparison, a control group receives only the solvent.
(§5) To trigger the histamine-induced and serotonin-induced anaphylactoid reactions of the skin, the animals are injected intradermally 30 minutes later on a second shaved part of the back with a solution of 40 μg histamine in 0.05 ml physiological sodium chloride solution and on a third shaved part of the back with a solution of 1 μg serotonin in 0.05 physiological sodium chloride solution.
(§6) Immediately thereafter 1.25 mg (-~8 mg/kg) ovalbumin to trigger the anaphylactic reaction, and 4 mg (-~26.4 mg/kg) of a blue dye dissolved in 0.5 ml phosphate-buffered physiological sodium chloride solution are administered i.v. to the animals.
(§7) After 30 minutes the animals are killed, the skin is removed and in the individual blue patches the quantity of dye contained therein is determined separately. According to the method of Mordelet-Danbrine et al (Therapie 29 (1974) 851-862) the dye is extracted from the individual patches in each case with 2.5 ml dimethylformamide at a temperature of 37° C. for 4 days and the quantity of dye obtained in each case in the extraction solution is determined by spectrophotometric measurement. The doses of the test substances which cause a 50% reduction in the dye concentration compared with the control group are calculated as ED50 values.

[2] = Acute 8-day toxicity, single i.p. application to male mice (LD50); conditions: in vivo, ip, mouse i.p., 8 days
Description: The acute 8-day toxicity is determined after a single application i.p. to male mice (body weight 18 to 22 g). The mortality is noted for 8 days. The results are calculated as LD50 values, i.e. the dose which kills 50% of the animals.

[3] = tested on: histamine-induced anaphylactoidal reaction; assay: Inhibition of histamine-induced anaphylactoid cutaneous reaction in the rat, test substance p.o.; format: in vivo, rat (Sprague-Dawley); conditions: po, 40 μg histamine intradermally, read-out: ED50 inhibiting effect, histamine-induced anaphylactoidal reaction
Description: as §1, §2, §3, §4, §5, §6, §7

[4] = tested on: passive cutaneous anaphylaxis; assay: Inhibition of passive cutaneous anaphylaxis (PCA) in the rat, test substance p.o.; format: in vivo, rat (Sprague-Dawley); conditions: po, 50% reduction in dye concentration vs control, read-out: ED50 inhibiting effect, passive cutaneous anaphylaxy
Description: as §1
For the preparation of an antiovalbumin serum, rich in IgE, which is used in the test, according to the method of Lehrer et al (J. Immunol. 116, (1976) 178-182) and Pauwels et al (Ann. Immunol. 230C., (1979), 49-58), Sprague-Dawley rats are sensitized by i.p. injection of 1 mg ovalbumin and 1 ml Bordetella pertussis suspension (vaxicoq, Merieux 3×10^10 organisms/ml). After 20 days the animals are given an injection of 10 mg ovalbumin in the same way, but without any additive. After a further 4 days, blood is removed from the animals and the blood is centrifuged. The antiserum thus obtained is stored at -20° C. and adjusted according to the method of Goose et al (Immunology 16 (1968) 749-760).
as §2, §3, §4, §6, §7

[5] = tested on: peritonal mast cells of rats; assay: In vitro inhibition of anaphylactically caused histamine release from peritonal mast cells of rats; format: cell-based, rat (Sprague-Dawley); conditions: Rattus norvegicus, Mast cell; ovalbumin trigger, 1 minute preincubation at 37° C.; read-out: EC50 in vitro inhibiting effect with respect to anaphylactically caused histamine release from mast cells of the rat
Description: 3. Determining the inhibiting effect in vitro on the release of histamine, caused anaphylactically, from peritonal mast cells of rats.
In order to obtain the peritonal mast cells, Sprague-Dawley rats are killed by inhalation of ether and immediately after cessation of breathing has occurred, 15 ml of a cold solution of 1 mg/ml human serum albumin in phosphate-buffered sodium chloride solution are injected into the abdominal cavity. The peritonal fluid is then removed and the mast cells are separated therefrom by centrifuging and are suspended in phosphate-buffered sodium chloride solution, whereafter the suspension is adjusted to a mast cell concentration of 5×10^5 per ml.
The mast cell suspension, divided up into samples each of 100 μl, is introduced into test-tubes and each sample, for passive sensitizing, is mixed with 100 μl of a 1:10 dilution of IgE-rich antiovalbumin serum in physiological sodium chloride solution (prepared according to the method described above) and is incubated for 30 minutes at a temperature of 37° C. (water bath). For the removal of unbonded IgE, the mast cells are then washed with 2 ml phosphate-buffered sodium chloride solution, centrifuged, and the supernatant fluid is discarded. Then the mast cells are incubated for 1 minute at 37° C. with 200 μl of a solution of the test substance in phosphate-buffered sodium chloride solution. A control group is only incubated with the same quantity of phosphate-buffered sodium chloride solution which is free of test substance.
After an incubation period of 3 minutes at 37° C., the reaction is stopped by rapid cooling in an ice bath. Then centrifuging takes place, the supernatant fluid is decanted and the histamine content therein is determined directly, without further extraction, spectrofluorimetrically according to the method of Shore (J. Pharmac. Exp. Ther. 127 (1959) 182-186).
For the extraction of the residual histamine still contained in the mast cells of the undecanted material, the latter is mixed with 2 ml phosphate-buffered sodium chloride solution and the suspension is heated in a boiling water bath. Then centrifuging takes place, the supernatant fluid is decanted and therein the residual histamine extracted from the mast cells is determined spectrofluorimetrically.
For each sample, the quantity of the released histamine is calculated as percentage proportion of the overall quantity of histamine (=total of released histamine and residual histamine retained in the mast cells).
The EC50 values are calculated to be those molar concentrations of the test substances in the respective test solutions which produce a 50% inhibition of the histamine release compared to the control group.

Work on `Cc1ccnc(N2CCN(CCCn3c(=O)cc(C)n3-c3ccc([N+](=O)[O-])cc3)CC2)c1` [Example 2, 5-methyl-1-(4-nitrophenyl)-2-{3-[4-(4-methyl-pyrid-2-yl)-piperazin-1-yl]-propyl}-pyrazolin-3-one] yielded an ED50 [1] of 2.7 mg/kg, an LD50 at 192 h [2] of 90 mg/kg and an ED50 [3] of 1.75 mg/kg. It also gave an ED50 [4] of 1.9 mg/kg.
For `Cc1ccnc(N2CCN(CCCCn3c(=O)cc(C)n3-c3ccccc3)CC2)c1` [Example 4, 5-methyl-1-phenyl-2-{4-[4-(4-methyl-pyrid-2-yl)-piperazin-1-yl]-butyl}-pyrazolin-3-one], the ED50 [1] was 5.9 mg/kg, the LD50 at 192 h [2] was 130 mg/kg and the ED50 [3] was 7.98 mg/kg. The ED50 [4] was 3.9 mg/kg.
With `Cc1ccnc(N2CCN(CCCn3c(=O)cc(C)n3-c3ccc(O)cc3)CC2)c1` [Example 7, 5-methyl-1-(4-hydroxyphenyl)-2-{3-[4-(4-methyl-pyrid-2-yl)-piperazin-1-yl]-propyl}-pyrazolin-3-one] the ED50 [1] was 13 mg/kg, the LD50 at 192 h [2] was 178 mg/kg and the ED50 [3] was 7.9 mg/kg. For the same compound, the ED50 [4] was 6.6 mg/kg.
For `Cc1cc(=O)n(CCCN2CCN(c3ccccc3)CC2)n1-c1ccccc1` [Example 11], the ED50 [1] was 10.2 mg/kg, the LD50 at 192 h [2] was 108 mg/kg and the ED50 [3] was 10.1 mg/kg. It also gave an ED50 [4] of 4.65 mg/kg.
In the case of `CCCc1cc(=O)n(CCCN2CCN(c3cc(C)ccn3)CC2)n1-c1ccccc1` [Example 13], the ED50 [1] is reported as 1.87 mg/kg, the LD50 at 192 h [2] is reported as 96 mg/kg and the ED50 [3] is reported as 5.48 mg/kg. The ED50 [4] was 2.94 mg/kg.
For `Cc1ccnc(N2CCN(CCCn3c(=O)cc(C4CCCCC4)n3-c3ccccc3)CC2)c1` [Example 15], the ED50 [1] was 1.7 mg/kg, the LD50 at 192 h [2] was 90 mg/kg and the EC50 [5] was 14 µM. The ED50 [3] was 4.4 mg/kg and the ED50 [4] was 1.9 mg/kg.
For `COC(=O)c1ccccc1-n1c(C)cc(=O)n1CCCN1CCN(c2cc(C)ccn2)CC1` [Example 17], the ED50 [1] was 10.8 mg/kg, the LD50 at 192 h [2] was 342 mg/kg and the ED50 [3] was 12.6 mg/kg. The ED50 [4] was 5 mg/kg.
`Cc1ccnc(N2CCN(CCCn3c(=O)cc(C)n3-c3ccc(Cl)cc3)CC2)c1` [Example 18] gave an ED50 [1] of 6.2 mg/kg, an LD50 at 192 h [2] of 205 mg/kg and an EC50 [5] of 230 µM. It also gave an ED50 [3] of 6.6 mg/kg and an ED50 [4] of 4.7 mg/kg.
Compound `COc1ccc(N2CCN(CCCn3c(=O)cc(C)n3-c3ccc(C)cc3Cl)CC2)cc1` [Example 20] has an EC50 [5] of 10 µM.
With `COc1ccccc1-n1c(C)cc(=O)n1CCCN1CCN(c2cc(C)ccn2)CC1` [Example 21] the ED50 [1] was 8.3 mg/kg, the LD50 at 192 h [2] was 252 mg/kg and the ED50 [3] was 5.1 mg/kg. For the same compound, the ED50 [4] was 7.1 mg/kg.
Work on `CCCc1cc(=O)n(CCCN2CCN(c3ccc(F)cc3)CC2)n1-c1ccc(Cl)c(Cl)c1` [Example 22] yielded an EC50 [5] of 43 µM.
`CCc1cc(=O)n(CCCN2CCN(c3cc(C)ccn3)CC2)n1-c1ccc(Cl)cc1` [Example 23] showed an ED50 [1] of 5.8 mg/kg, an LD50 at 192 h [2] of 168 mg/kg and an EC50 [5] of 140 µM. For the same compound, the ED50 [3] was 4.7 mg/kg and the ED50 [4] was 7.85 mg/kg.
`CCCCCCc1cc(=O)n(CCCN2CCN(c3cc(C)ccn3)CC2)n1-c1ccccc1` [Example 26] showed an ED50 [1] of 7.8 mg/kg, an LD50 at 192 h [2] of 72.5 mg/kg and an EC50 [5] of 35 µM. It also gave an ED50 [3] of 6.3 mg/kg and an ED50 [4] of 6.75 mg/kg.
`CCOc1ccc(-n2c(C)cc(=O)n2CCCN2CCN(c3cc(Cl)ccc3C)CC2)cc1` [Example 30] showed an EC50 [5] of 18 µM.
Work on `CCc1cc(=O)n(CCCN2CCN(c3cc(C)ccn3)CC2)n1-c1ccc([N+](=O)[O-])cc1` [Example 38] yielded an ED50 [1] of 5.54 mg/kg, an LD50 at 192 h [2] of 93 mg/kg and an ED50 [3] of 3.88 mg/kg. It also gave an ED50 [4] of 3.18 mg/kg.
`O=c1cc(C2CC2)n(-c2ccccc2)n1CCCN1CCN(c2ccc(F)cc2)CC1` [Example 43] showed an ED50 [1] of 3.25 mg/kg, an ED50 [3] of 5.79 mg/kg and an ED50 [4] of 2.45 mg/kg.
Compound `CC(=O)c1ccc(-n2c(C)cc(=O)n2CCCN2CCN(c3cc(C)ccn3)CC2)cc1` [Example 44] has an ED50 [1] of 8.9 mg/kg, an LD50 at 192 h [2] of 170 mg/kg and an ED50 [3] of 3.15 mg/kg. The ED50 [4] was 5.4 mg/kg.
With `Cc1cc(=O)n(CCCN2CCN(c3ccccn3)CC2)n1-c1ccccc1` [Example 45] the ED50 [1] was 8 mg/kg, the LD50 at 192 h [2] was 240 mg/kg and the ED50 [3] was 11 mg/kg. For the same compound, the ED50 [4] was 6.3 mg/kg.
Compound `Cc1ccnc(N2CCN(CCCn3c(=O)cc(C)n3-c3ccc(C#N)cc3)CC2)c1` [Example 46] has an ED50 [1] of 8 mg/kg, an LD50 at 192 h [2] of 101 mg/kg and an ED50 [3] of 2.8 mg/kg. For the same compound, the ED50 [4] was 6.3 mg/kg.
In the case of `COc1ccc(-n2c(C)cc(=O)n2CCCN2CCN(c3cc(C)ccn3)CC2)cc1` [Example 47], the ED50 [1] is reported as 6.8 mg/kg, the LD50 at 192 h [2] is reported as 190 mg/kg and the ED50 [3] is reported as 6.8 mg/kg. For the same compound, the ED50 [4] was 5.96 mg/kg.
In the case of `O=c1cc(C2CCCCC2)n(-c2ccccc2)n1CCCN1CCN(c2ccc(F)cc2)CC1` [Example 49], the ED50 [1] is reported as 3.59 mg/kg, the LD50 at 192 h [2] is reported as 96 mg/kg and the EC50 [5] is reported as 57 µM. It also gave an ED50 [3] of 10.6 mg/kg and an ED50 [4] of 4.9 mg/kg.
In the case of `Cc1ccc(-n2c(C)cc(=O)n2CCCN2CCN(c3cc(C)ccn3)CC2)cc1` [Example 55], the ED50 [1] is reported as 11.8 mg/kg, the LD50 at 192 h [2] is reported as 135 mg/kg and the ED50 [3] is reported as 11.9 mg/kg. For the same compound, the ED50 [4] was 7.26 mg/kg.
In the case of `COc1ccc(-n2c(C)cc(=O)n2CCCN2CCN(c3cc(C)ccn3)CC2)cc1OC` [Example 56], the ED50 [1] is reported as 6.29 mg/kg, the LD50 at 192 h [2] is reported as > 350 mg/kg and the ED50 [3] is reported as 3.85 mg/kg. The ED50 [4] was 5.7 mg/kg.
In the case of `Cc1ccnc(N2CCN(CCCn3c(=O)cc(C4CCCC4)n3-c3ccccc3)CC2)c1` [Example 58], the ED50 [1] is reported as 1.41 mg/kg, the LD50 at 192 h [2] is reported as 95 mg/kg and the EC50 [5] is reported as 120 µM. The ED50 [3] was 10 mg/kg and the ED50 [4] was 1.17 mg/kg.
